Source: patent publication US11554171B2, “Compounds and methods for the targeted degradation of bromodomain-containing proteins” (Arvinas Operations, Inc., priority 2015, dated 2023)

Test system: c-myc in 22RV-1 cells
Experiment: Human c-myc ELISA assay
Type: cell-based
Details: Homo sapiens; for Emax: 22Rv1, 18 h, read-out: Degradation of BRD4: Maximum inhibition (%) c-Myc ELISA in 22RV1 cells; for DC50: 22Rv1, read-out: Degradation of BRD4: DC50 (uM) c-Myc ELISA in 22RV1 cells
How it was run: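 22RV-1 cells treated 18 h with 8-point 1:3 compound dilutions (final top 300 nM or 1 μM, 0.1% DMSO). Cells lysed in RIPA buffer with protease/phosphatase inhibitors, and c-myc protein in cleared lysate quantified by ELISA against a standard curve. DC50 reported for c-myc suppression.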

DC50	Compound	Emax
< 0.01 µM	Cc1ncsc1-c1ccc(CNC(=O)[C@@H]2C[C@@H](O)CN2C(=O)[C@@H](c2cc(OCCC(F)(F)CCNC(=O)C[C@@H]3N=C(c4ccc(Cl)cc4)c4c(sc(C)c4C)-n4c(C)nnc43)no2)C(C)C)cc1 [Example 297, (2S,4R)-1-[(2R)-2-{3-[(5-{2-[(9S)-7-(4-chlorophenyl)-4,5,13-trimethyl-3-thia-1,8,11,12-tetraazatricyclo[8.3.0.0^2,^6]trideca-2(6),4,7,10,12-pentaen-9-yl]acetamido}-3,3-difluoropentyl)oxy]-1,2-oxazol-5-yl}-3-methylbutanoyl]-4-hydroxy-N-{[4-(4-methyl-1,3-thiazol-5-yl)phenyl]methyl}pyrrolidine-2-carboxamide]	97%
< 0.01 µM	Cc1ncsc1-c1ccc(CNC(=O)[C@@H]2C[C@@H](O)CN2C(=O)[C@@H](c2cc(OCCO[C@H]3C[C@@H](NC(=O)C[C@@H]4N=C(c5ccc(Cl)cc5)c5c(sc(C)c5C)-n5c(C)nnc54)C3)no2)C(C)C)cc1 [Example 317]	89.9%
> 1 µM	Cc1ncsc1-c1ccc(CNC(=O)[C@@H]2C[C@H](O)CN2C(=O)[C@@H](NC(=O)COCCCOCCNC(=O)C[C@@H]2N=C(c3ccc(Cl)cc3)c3c(sc(C)c3C)-n3c(C)nnc32)C(C)(C)C)cc1 [Example 73]	21.4%
< 0.01 µM	Cc1ncsc1-c1ccc([C@H](C)NC(=O)[C@@H]2C[C@@H](O)CN2C(=O)[C@@H](NC(=O)c2cc3ccc(O[C@H]4C[C@@H](NC(=O)C[C@@H]5N=C(c6ccc(Cl)cc6)c6c(sc(C)c6C)-n6c(C)nnc65)C4)cc3o2)C(C)(C)C)cc1 [Example 212]	95%
0.1 to 1 µM	Cc1ncsc1-c1ccc(CNC(=O)[C@@H]2C[C@@H](O)CN2C(=O)[C@@H](NC(=O)COCCn2cc(-c3ccc([C@@H](C)NC(=O)C[C@@H]4N=C(c5ccc(Cl)cc5)c5c(sc(C)c5C)-n5c(C)nnc54)cc3)cn2)C(C)(C)C)cc1 [Example 78]	86.7%
0.01 to 0.1 µM	Cc1ncsc1-c1ccc([C@H](C)NC(=O)[C@@H]2C[C@@H](O)CN2C(=O)[C@@H](NC(=O)CN2CCC(N3C[C@@H]4C[C@H]3CN4C(=O)C[C@@H]3N=C(c4ccc(Cl)cc4)c4c(sc(C)c4C)-n4c(C)nnc43)CC2)C(C)(C)C)cc1 [Example 368, (2S,4R)-1-[(2S)-2-(2-{4-[(1S,4S)-5-{2-[(9S)-7-(4-chlorophenyl)-4,5,13-trimethyl-3-thia-1,8,11,12-tetraazatricyclo[8.3.0.0^2,6]trideca-2(6),4,7,10,12-pentaen-9-yl]acetyl}-2,5-diazabicyclo[2.2.1]heptan-2-yl]piperidin-1-yl}acetamido)-3,3-dimethylbutanoyl]-4-hydroxy-N-[(1S)-1-[4-(4-methyl-1,3-thiazol-5-yl)phenyl]ethyl]pyrrolidine-2-carboxamide]	100%
0.01 to 0.1 µM	Cc1ncsc1-c1ccc(CNC(=O)[C@@H]2C[C@@H](O)CN2C(=O)[C@@H](NC(=O)COCCCOCCCOc2ccc(NC(=O)C[C@@H]3N=C(c4ccc(Cl)cc4)c4c(sc(C)c4C)-n4c(C)nnc43)cc2)C(C)(C)C)cc1 [Example 16]	98.6%
< 0.01 µM	Cc1ncsc1-c1ccc([C@H](C)NC(=O)[C@@H]2C[C@@H](O)CN2C(=O)[C@H](C(C)C)n2cc(-c3cc(F)cc(O[C@H]4C[C@H](NC(=O)C[C@@H]5N=C(c6ccc(Cl)cc6)c6c(sc(C)c6C)-n6c(C)nnc65)C4)c3)cn2)cc1 [Example 254]	95.4%
< 0.01 µM	Cc1ncsc1-c1ccc(CNC(=O)[C@@H]2C[C@@H](O)CN2C(=O)[C@@H](NC(=O)COCCCOCCCCCNC(=O)C[C@@H]2N=C(c3ccc(Cl)cc3)c3c(sc(C)c3C)-n3c(C)nnc32)C(C)(C)C)cc1 [Example 50, (2S,4R)-1-[(2S)-2-(2-{3-[(5-{2-[(9S)-7-(4-chlorophenyl)-4,5,13-trimethyl-3-thia-1,8,11,12-tetraazatricyclo[8.3.0.0^2,^6]trideca-2(6),4,7, 10,12-pentaen-9-yl]acetamido}pentyl)oxy]propoxy}acetamido)-3,3-dimethylbutanoyl]-4-hydroxy-N-{[4-(4-methyl-1,3-thiazol-5-yl)phenyl]methyl}pyrrolidine-2-carboxamide]	98%
0.01 to 0.1 µM	Cc1ncsc1-c1ccc(CNC(=O)[C@@H]2C[C@@H](O)CN2C(=O)[C@@H](NC(=O)COCCCCCCNC(=O)C[C@@H]2N=C(c3ccc(Cl)cc3)c3c(sc(C)c3C)-n3c(C)nnc32)C(C)(C)C)cc1 [Example 82]	100%
< 0.01 µM	Cc1ncsc1-c1ccc([C@H](C)NC(=O)[C@@H]2C[C@@H](O)CN2C(=O)[C@@H](NC(=O)Cc2cccc(O[C@H]3C[C@H](NC(=O)C[C@@H]4N=C(c5ccc(Cl)cc5)c5c(sc(C)c5C)-n5c(C)nnc54)C3)c2)C(C)(C)C)cc1 [Example 194]	92.4%
0.1 to 1 µM	Cc1ncsc1-c1ccc([C@H](C)NC(=O)[C@@H]2C[C@@H](O)CN2C(=O)[C@@H](C(C)C)n2cc(-c3ccnc(O[C@H]4C[C@H](NC(=O)C[C@@H]5N=C(c6ccc(Cl)cc6)c6c(sc(C)c6C)-n6c(C)nnc65)C4)c3)cn2)cc1 [Example 220]	66.4%
< 0.01 µM	Cc1ncsc1-c1ccc([C@H](C)NC(=O)[C@@H]2C[C@@H](O)CN2C(=O)[C@@H](NC(=O)COc2cccc(OCCNC(=O)C[C@@H]3N=C(c4ccc(Cl)cc4)c4c(sc(C)c4C)-n4c(C)nnc43)c2)C(C)(C)C)cc1 [Example 127, (2S,4R)-1-[(2S)-2-{2-[3-(2-{2-[(9S)-7-(4-chlorophenyl)-4,5,13-trimethyl-3-thia-1,8,11,12-tetraazatricyclo[8.3.0.0^2,^6]trideca-2(6),4,7,10,12-pentaen-9-yl]acetamido}ethoxy)phenoxy]acetamido}-3,3-dimethylbutanoyl]-4-hydroxy-N-[(1S)-1-[4-(4-methyl-1,3-thiazol-5-yl)phenyl]ethyl]pyrrolidine-2-carboxamide]	99%
0.01 to 0.1 µM	Cc1ncsc1-c1ccc([C@H](C)NC(=O)[C@@H]2C[C@@H](O)CN2C(=O)C(C(C)C)n2cc(-c3cc(F)cc(O[C@H]4C[C@@H](NC(=O)C[C@@H]5N=C(c6ccc(Cl)cc6)c6c(sc(C)c6C)-n6c(C)nnc65)C4)c3)cn2)cc1 (some centres unmarked) [Example 214]	97%
0.1 to 1 µM	Cc1ncoc1-c1ccc(CNC(=O)[C@@H]2C[C@@H](O)CN2C(=O)[C@H](C(C)C)n2cc(-c3ccnc(O[C@H]4C[C@@H](NC(=O)C[C@@H]5N=C(c6ccc(Cl)cc6)c6c(sc(C)c6C)-n6c(C)nnc65)C4)c3)cn2)cc1 [Example 295]	93.8%

Compound	DC50	Emax
[2H]C([2H])([2H])C([C@H](NC(=O)c1cc2cc(O[C@H]3C[C@@H](NC(=O)C[C@@H]4N=C(c5ccc(Cl)cc5)c5c(sc(C)c5C)-n5c(C)nnc54)C3)ccc2o1)C(=O)N1C[C@H](O)C[C@H]1C(=O)N[C@@H](C)c1ccc(-c2scnc2C)cc1)(C([2H])([2H])[2H])C([2H])([2H])[2H] [Example 364, (2S,4R)-1-[(2S)-3,3-bis(^2H3)methyl-2-({5-[(1,3-cis)-3-{2-[(9S)-7-(4-chlorophenyl)-4,5,13-trimethyl-3-thia-1,8,11,12-tetraazatricyclo[8.3.0.0^2,^6]trideca-2(6),4,7,10,12-pentaen-9-yl]acetamido}cyclobutoxy]-1-benzofuran-2-yl}formamido)(4,4,4-^2H3)butanoyl]-4-hydroxy-N-[(1S)-1-[4-(4-methyl-1,3-thiazol-5-yl)phenyl]ethyl]pyrrolidine-2-carboxamide]	< 0.01 µM	100%
